From US9809861B2, “Method of evaluating inhibitory effect on damp-dry malodor” (Kao Corporation, priority 2012, dated 2017)

Tests used:
[1] = tested on: Moraxella sp. KMC4-1; assay: Growth-inhibitory test; assay type: cell-based; details: SCD liquid medium, 24 hours, 35° C., (4) 500 ppm; for Growth-inhibitory effect: initial 10^4 CFU/mL, Substance (1) 10 ppm, (2)(3)(5)(6) 100 ppm
Experimental: To 4 mL of SCD liquid medium (manufactured by NIHON PHARMACEUTICAL CO., LTD), the substances (1) to (7) each were added so as to be the final concentration described in Table 15. As a control, a medium system not added with any test substance was also prepared. To the medium, the precultured Moraxella sp. KMC4-1 was inoculated so as to be the initial concentration of 10^4 CFU/mL and cultured for 24 hours at 35° C. while shaking (160 rpm). After that, it was subjected to serial dilution using LP dilution solution (NIHON PHARMACEUTICAL CO., LTD). Then, by using SCD-LP agar medium (NIHON PHARMACEUTICAL CO., LTD), the number of bacteria remained alive was determined.
As for the growth-inhibitory and the bactericidal effect, the evaluation was made as follows: compared to the control, when there was the bacteria number decrease of log 3 or more, it was rated as “A”; when there was the bacteria number decrease of log 1 or more but less than log 3, it was rated as “B”; and when there was the bacteria number decrease of less than log 1, it was rated as “C”.

[2] = tested on: fadB gene; assay: Change in expression amount of fadB gene in the presence of test substance (real time PCR); assay type: cell-based, Moraxella sp. KMC4-1; details: for Change in the expression amount of fadB gene: Substance (1) 10 ppm, (2)(3)(5)(6) 100 ppm, (4) 500 ppm
Experimental: (§1) The substances (1) to (7) described below each were added to 4 mL SCD liquid medium (manufactured by NIHON PHARMACEUTICAL CO., LTD). As a control, a medium system not added with any test substance was also prepared. To these medium, one platinum loop of precultured Moraxella sp. KMC4-1 was inoculated and cultured for 24 hours at 35 C while shaking (160 rpm).
(§2) To the cell liquid cultured for 24 hours, 10 mg of 16-methyloctadecanoic acid was added as a sebaceous dirt component. After culturing again for 6 hours at 35° C., the cells were collected. As a control, a system not added with a sebaceous dirt component was also cultured and cells were collected therefrom.
(§3) An RNA sample was prepared from the collected cells in the same manner as in the test example 1.
(§4) Reaction solutions for real time PCR were prepared in the same manner as above, except that, instead of the primer set including the primer containing the oligonucleotide having the base sequence set forth in SEQ ID NO: 13 and the primer containing the oligonucleotide having the base sequence set forth in SEQ ID NO: 14, the primer set described in Tables 11 to 13 was used.
(§5) The reaction solutions for real time PCR each were subjected to a gene amplification by using an automatic gene amplification thermal cycler DICE Real time system II (manufactured by Takara Bio Inc.), and then the expression amount of each of the fatty acid desaturase gene (the Δ9desaturase gene) and the β oxidation-relating enzyme genes (the fadB gene and the fadD gene) was measured. PCR reaction conditions were 40 cycles of (i) a thermal denaturation reaction at 95° C. for 20 seconds, and (ii) an annealing reaction and an elongation reaction at 60° C. for 30 seconds.
(§6) By having the gene expression of 16S rRNA as an internal standard, and having the gene expression amount when adding no sebaceous dirt component and no test substance as a reference value, change in expression amount of each gene was calculated relative to the reference value. A sample, in which the expression amount of the gene was ½ times or less the reference value, was rated as “A”; a sample, in which the expression amount of the gene was more than ½ times and ⅔ times or less the reference value, was rated as “B”; and a sample, in which the expression amount of the gene was more than ⅔ times the reference value, was rated as “C”.

[3] = tested on: Δ9desaturase gene; assay: Change in expression amount of Δ9desaturase gene in the presence of test substance (real time PCR); assay type: cell-based, Moraxella sp. KMC4-1; details: for Change in the expression amount of Δ9desaturase gene: Substance (1) 10 ppm, (2)(3)(5)(6) 100 ppm, (4) 500 ppm
Experimental: as §1, §2, §3
By mixing 2 μL solution of the prepared template diluted ×20 with distilled sterile water, 12.5 μL of TaKaRa SYBR Premix EX Taq (trade name, manufactured by Takara Bio Inc.), 0.5 μL of the primer (des_F1, […]) containing the oligonucleotide having the base sequence set forth in SEQ ID NO: 13, 0.5 μL of the primer (des_R1, […]) containing the oligonucleotide having the base sequence set forth in SEQ ID NO: 14 and 9.5 μL of distilled sterile water, 25 μL reaction solution for real time PCR was prepared.
as §4, §5, §6

[4] = tested on: fadD gene; assay: Change in expression amount of fadD gene in the presence of test substance (real time PCR); assay type: cell-based, Moraxella sp. KMC4-1; details: for Change in the expression amount of fadD gene: Substance (1) 10 ppm, (2)(3)(5)(6) 100 ppm, (4) 500 ppm; for expression amount of the fadD gene by the microorganisms: summary of Table 13
Experimental: as §1, §2, §3, §4, §5, §6

[5] = primers SEQ ID NO: 13 / 14, 16-methyloctadecanoic acid added, relative to reference without sebaceous dirt component and test substance

Compound | Growth-inhibitory effect [1] | Change in the expression amount of fadB gene ([2]; primers SEQ ID NO: 25 / 26) | Change in the expression amount of fadB gene ([2]; primers SEQ ID NO: 27 / 28) | Change in the expression amount of fadB gene ([2]; primers SEQ ID NO: 29 / 30) | Change in the expression amount of fadB gene ([2]; primers SEQ ID NO: 31 / 32) | Change in the expression amount of Δ9desaturase gene [3, 5] | Change in the expression amount of Δ9desaturase gene ([3]; primers SEQ ID NO: 15 / 16) | Change in the expression amount of Δ9desaturase gene ([3]; primers SEQ ID NO: 17 / 18) | Change in the expression amount of Δ9desaturase gene ([3]; primers SEQ ID NO: 19 / 20) | Change in the expression amount of Δ9desaturase gene ([3]; primers SEQ ID NO: 21 / 22) | Change in the expression amount of Δ9desaturase gene ([3]; primers SEQ ID NO: 23 / 24) | expression amount of the Δ9desaturase gene by the microorganisms ([3]; summary of Table 11) | Change in the expression amount of fadD gene ([4]; primers SEQ ID NO: 35 / 36) | Change in the expression amount of fadD gene ([4]; primers SEQ ID NO: 41 / 42) | expression amount of the fadD gene by the microorganisms [4] | Growth-inhibitory effect: bacteria number decrease compared to the control ([1]; Substance (2) 100 ppm) | expression amount of the fadB gene by the microorganisms ([2]; summary of Table 12)
CCCCCCCCCC=O [Substance (1)] | C (the bacteria number decrease of less than log 1) | C (the expression amount of the gene was more than ⅔ times the reference value) | C (the expression amount of the gene was more than ⅔ times the reference value) | C (the expression amount of the gene was more than ⅔ times the reference value) | C (the expression amount of the gene was more than ⅔ times the reference value) | B (the expression amount of the gene was more than ½ times and ⅔ times or less the reference value) | B (the expression amount of the gene was more than ½ times and ⅔ times or less the reference value) | A (the expression amount of the gene was ½ times or less the reference value) | A (the expression amount of the gene was ½ times or less the reference value) | B (the expression amount of the gene was more than ½ times and ⅔ times or less the reference value) | B (the expression amount of the gene was more than ½ times and ⅔ times or less the reference value) | decreased | A (the expression amount of the gene was ½ times or less the reference value) | A (the expression amount of the gene was ½ times or less the reference value) | decreased | – | –
CC(=O)OC(C)(C)Cc1ccccc1 [Substance (2)] | B (the bacteria number decrease of log 1 or more but less than log 3) | A (the expression amount of the gene was ½ times or less the reference value) | A (the expression amount of the gene was ½ times or less the reference value) | A (the expression amount of the gene was ½ times or less the reference value) | A (the expression amount of the gene was ½ times or less the reference value) | C (the expression amount of the gene was more than ⅔ times the reference value) | B (the expression amount of the gene was more than ½ times and ⅔ times or less the reference value) | B (the expression amount of the gene was more than ½ times and ⅔ times or less the reference value) | B (the expression amount of the gene was more than ½ times and ⅔ times or less the reference value) | C (the expression amount of the gene was more than ⅔ times the reference value) | C (the expression amount of the gene was more than ⅔ times the reference value) | – | A (the expression amount of the gene was ½ times or less the reference value) | A (the expression amount of the gene was ½ times or less the reference value) | decreased | 2 log | decreased
